Measurements reported in patent US7795267B2, “Bicyclic piperazine compound having TGR23 antagonistic activity” (Takeda Pharmaceutical Company Limited, priority 2003, dated 2010).

Key:
[1] = test system: human colon cancer cell strain LS 174T; assay: Inhibition of DNA synthesis by cancer cells ([methyl-3H]-thymidine uptake under TGR23 ligand stimulation); assay type: cell-based; conditions: LS174T, LS 174T cells, 10 nM TGR23 ligand, read-out: IC50 value of the test compound in DNA synthesis
Protocol: The cells of human colon cancer cell strain LS 174T (ATCC number: CL-188) were inoculated to a 96-well plate to a concentration of 20,000 cells per well, and then incubated in an EMEM medium (Nikken Biology and Medical Research Center) containing 0.05% bovine serum albumin not containing fatty acids (Sigma Chemical Co.) for 24 hours. After the 15-minute preincubation of these cells with the test compound, the cells were incubated in the presence of 10 nM of a TGR23 ligand [a human TGR23-2 ligand (1-20) represented by SEQ ID NO: 23 in WO 03/25179 was used] for 18 hours. Next, the cells were incubated in the presence of 0.25 μCi of [methyl-^3H]-thymidine (Amersham Biosciences KK) per well for 6 hours. The [methyl-^3H]-thymidine incorporated into the cancer cell DNA was measured in the following manner. After discarding the culture supernatant, 100 μL of ice-cold 10% trichloroacetic acid per well was added to the cells having taken up [methyl-^3H]-thymidine, and the cells were maintained on ice for 15 minutes. After discarding the trichloroacetic acid solution, 300 μL of a 0.2 N sodium hydroxide solution per well was added to the immobilized cells, and then the cells were kept warm overnight at 37° C. The amount of [methyl-^3H]-thymidine in the cell lysate was measured with a liquid scintillation counter.
The rate of DNA synthesis inhibition by the test compound was defined as the relative value obtained by subtracting the amount of [methyl-^3H]-thymidine uptake determined without stimulation from the uptake amount determined in the presence of the test compound and 10 nM of the TGR23 ligand, when the value obtained by subtracting the amount of [methyl-^3H]-thymidine uptake determined without stimulation from the uptake amount determined in the presence of the stimulation by 10 nM of the TGR23 ligand was taken as 100%. The IC50 value of the test compound in DNA synthesis was defined as the concentration of the test compound required to achieve 50% of the DNA synthesis inhibition rate.

[2] = test system: human colon cancer cell strain LS 174T; assay: Cell growth inhibition (MTT method, TGR23 ligand stimulation); assay type: cell-based; conditions: LS174T, LS 174T cells, 10 nM TGR23 ligand, 24 hours, read-out: IC50 value of the test compound for cell growth
Protocol: The cells of human colon cancer cell strain LS 174T (ATCC number: CL-188) were inoculated in a 96-well plate to a concentration of 40,000 cells per well, and then the cells were incubated for 24 hours in an EMEM medium containing 0.05% bovine serum albumin not containing fatty acids. After a 15-minute pretreatment of these cells with the test compound, LS 174T cells were incubated for 24 hours in the presence of 10 nM of a TGR23 ligand [a human TGR23-2 ligand (1-20) represented by SEQ ID NO: 23 in WO 03/25179 was used]. Cell growth was evaluated by the MTT method. Cells were lysed by keeping them warm in an MTT solution (3-(4,5-dimethylthiazol-2-yl)-2,5-diphenyl tetrazolium bromide) at a final concentration of 0.5 mg/mL at 37° C. for 4 hours, and then in a 5% SDS solution at 37° C. for 24 hours. The absorbance of the cell lysate was measured using a 96-well plate reader. […]
The cell growth inhibitory rate of the test compound was defined as the relative value obtained by subtracting the absorbance change determined without stimulation from the absorbance change determined in the presence of the test compound and 10 nM of the TGR23 ligand, when the value obtained by subtracting the absorbance change determined without stimulation from the absorbance change determined in the presence of stimulation by 10 nM of the TGR23 ligand was taken as 100%. […]

O=C(NCCN1CC=CCC1)N1CCN2C(=O)OC(c3ccccc3)(c3ccccc3)C2C1 (single isomer, unassigned; (+)) [Example 201, (+)-N-[2-(3,6-Dihydropyridin-1(2H)-yl)ethyl]-tetrahydro-3-oxo-1,1-diphenyl-3H-oxazolo[3,4-a]pyrazine-7(1H)-carboxamide]
IC50 [1]: ≤ 1000 nM

O=C(NCc1ccccc1)N1CCN2C(=O)OC(c3ccccc3)(c3ccccc3)C2C1 (centres unmarked) [Example 17, Tetrahydro-3-oxo-1,1-diphenyl-N-(phenylmethyl)-3H-oxazolo[3,4-a]pyrazine-7(1H)-carboxamide]
IC50 [1]: ≤ 1000 nM
IC50 [2]: ≤ 1000 nM

O=C(NCc1ccc(F)cc1)N1CCN2C(=O)OC(c3ccccc3)(c3ccccc3)C2C1 (centres unmarked) [Example 25, N-[(4-Fluorophenyl)methyl]-tetrahydro-3-oxo-1,1-diphenyl-3H-oxazolo[3,4-a]pyrazine-7(1H)-carboxamide]
IC50 [1]: ≤ 1000 nM
IC50 [2]: ≤ 1000 nM

O=C(NCc1cccc(F)c1)N1CCN2C(=O)OC(c3ccccc3)(c3ccccc3)C2C1 (centres unmarked) [Example 28, N-[(3-Fluorophenyl)methyl]-tetrahydro-3-oxo-1,1-diphenyl-3H-oxazolo[3,4-a]pyrazine-7(1H)-carboxamide]
IC50 [1]: ≤ 1000 nM

O=C(NCCN1CC=CCC1)N1CCN2C(=O)OC(c3ccccc3)(c3ccccc3)C2C1 (centres unmarked) [Example 85, N-[2-(3,6-Dihydropyridin-1(2H)-yl)ethyl]-tetrahydro-3-oxo-1,1-diphenyl-3H-oxazolo[3,4-a]pyrazine-7(1H)-carboxamide]
IC50 [1]: ≤ 1000 nM

O=C(NCc1ccsc1)N1CCN2C(=O)OC(c3ccccc3)(c3ccccc3)C2C1 (centres unmarked) [Example 96, Tetrahydro-3-oxo-1,1-diphenyl-N-[(3-thienyl)methyl]-3H-oxazolo[3,4-a]pyrazine-7(1H)-carboxamide]
IC50 [1]: ≤ 1000 nM

O=C(NCc1ccc(F)c(F)c1)N1CCN2C(=O)OC(c3ccccc3)(c3ccccc3)C2C1 (centres unmarked) [Example 97, N-[(3,4-Difluorophenyl)methyl]-tetrahydro-3-oxo-1,1-diphenyl-3H-oxazolo[3,4-a]pyrazine-7(1H)-carboxamide]
IC50 [1]: ≤ 1000 nM

O=C(CCCN1CC=CCC1)N1CCN2C(=O)OC(c3ccccc3)(c3ccccc3)C2C1 (centres unmarked) [Example 138, 7-[4-(3,6-Dihydropyridin-1(2H)-yl)-1-oxobutyl]-hexahydro-1,1-diphenyl-3H-oxazolo[3,4-a]pyrazin-7(1H)-3-one]
IC50 [1]: ≤ 1000 nM

O=C(NCCN1CCCCCC1)N1CCN2C(=O)OC(c3ccccc3)(c3ccccc3)C2C1 (centres unmarked) [Example 147, N-[2-(Hexahydro-1H-azepin-1-yl)ethyl]tetrahydro-3-oxo-1,1-diphenyl-3H-oxazolo[3,4-a]pyrazine-7(1H)-carboxamide]
IC50 [1]: ≤ 1000 nM
